Measurements taken from patent US20080207738A1, “DRUG COMBINATIONS TO TREAT DRUG RESISTANT TUMORS” (priority 2007, published 2008).
Where two headings read alike, the source gives them in different places.

Key:
[1] = system: parent L5178 mouse T-cell lymphoma cells; assay: MTT cell viability, parent L5178 cells; settings: Mus musculus, L5178, 72 h, read-out: Inhibition (%) of viability
Source text: (§1) For the determination of relative number of viable cells before and after treatments, in most cases the MTT assay was used. This calorimetric assay is based on the ability of living cells, but not dead cells, to reduce 3-(4, 5-dimethyl thiazol-2-yl)-2, 5-diphenyltetrazolium bromide [Carmichael, J, De Graff, W. G., Gazdar, A. F., Minna, J. D. and Mitchell, J. B. (1987), “Evaluation oftetrazolium-based semiautomated calorimetric assay: Assessment of chemosensitivity testing,” Cancer Res., 47, 936-942]. For this assay, cells were plated in 96-well plates (10,000-30,000 cells in case of cultured cells, 100,000 cells in case of healthy lymphocytes, and 200,000 cells in case of chronic lymphocytic leukemia or non-Hodgkin lymphocytes) in the respective incubation media. After a 24-h resting period, the cells were treated with the test agents and then incubated (in CO2 incubator under humidified atmosphere) for 72 hours (final incubation volume, 150 μl). The MTT assay was performed both with the untreated and treated cell cultures at the conclusion of the incubation. Often, the MTT assay also was performed at the start of treatments to allow assessment of proliferation rates in the control and treated cell cultures. All data presented are the average of 4 incubations (in 4 separate wells) with the same cell population.
Parent L5178 cells were seeded at 10,000 cells per well in 96-well plates and then incubated for 72 hours in the absence or presence of CCcompound104 (1 or 5 μg/ml) and various concentrations of CCcompound26 as indicated in Table 5.
(§2) Epirubicin, like doxorubicin and other antracyclins, is an MDR1 substrate. The goal of this experiment was to use epirubicin as a model compound to determine if in L5178/MDR1 cells CCcompound104 also can enhance the effects of MDR1 substrate anti-cancer agents other than CCcompound26 and other thioxanthene or thioxanthone CC compounds. The parent and MDR1 expressing cells were seeded at 30,000 cells per well in 96-well microplates and after a 24-h resting period treated with increasing concentrations of epirubicin n in the absence or presence of 5 μg/ml of CCcompound104 for 72 hours.

[2] = system: L5178/MDR1 mouse T-cell lymphoma cells; assay: cells; settings: Mus musculus, T-cell, 72 h, read-out: Inhibition (%) of viability
Source text: as §1
L5178/MDR1 cells were seeded at 10,000 cells per well in 96-well plates and then incubated for 72 hours in the absence or presence of 5 μg/ml of CCcompound104 and various concentrations of CCcompound26 as indicated in Table 6.
as §2

MCF-7/ADR cells = assay: MTT cell viability, MCF-7/ADR cells; assay type: cell-based, human; settings: 72 h; CCcompound104 5 μg/ml, EA 60 μM, CCcompound26/CCcompound3/CCcompound19 50 μM, alone or combined
Description: MCF/ADR cells were selected by incubating the parent MCF-7 with toxic concentrations (up to 10 μM) of adriamycin (doxorubicin). The selected drug resistant cells express both MDR1 and MRP1 among other molecular alterations as reviewed earlier [Kiss, Z., Tomono, M. and Anderson, W. B. (1994), “Phorbol ester selectively stimulates the phospholipase D-mediated hydrolysis of phosphatidylethanolamine in multidrug-resistant MCF-7 human breast carcinoma cells,” Biochem. J., 302, 649-654]. […] Ethacrynic acid (EA) alone, used at 60 μM concentration, decreased cell viability by about 24%, while CCcompound104 and EA in combination had 70% inhibitory effects (Table 7). In this cell line CCcompound104 and EA decreased cell viability synergistically.

CLL cells = assay: cells; settings: Homo sapiens, CLL cell, 72 h, 72 h, CCcompound104 5 μg/ml, CCcompound26 1 μM, alone or combined
Description: Heparinized peripheral-blood samples were obtained from chronic lymphocytic leukemia patients with more than 70% malignant cells after informed consent, in accordance with the Declaration of Helsinki. The blood samples (10-ml) were diluted 1:1 with cold phosphate buffered saline (PBS; 0.135 M NaCl, 2.7 mM KCl, 1.5 mM KH2PO4, 8 mM Na2HPO4 [pH 7.4]) and layered onto Ficoll-Hypaque (8-ml, specific gravity, 1.086; Life Technologies, Grand Island, N.Y.). Then, the blood was centrifuged at 433 g for 20 min, and mononuclear cells were removed from the interphase. Cells were washed twice with cold PBS and after each centrifugation step the pelleted cells were resuspended in 10-ml RPMI 1640 supplemented with 10% fetal bovine serum (inactivated for 30 min at 56° C.). A Coulter channelyzer (Coulter Electronics, Hialeah, Fla.) was used to determine the cell number. Then the number of cells was adjusted to 1×10^7 cells per 1 ml before using them for the experiments.
as §1

[3] = system: CaOV-3 human ovarian cancer cell line; assay: Cell viability, CaOV-3 cells; settings: Caov-3, read-out: decrease in viability / inhibition
Source text: For the determination of relative number of viable cells before and after treatments, in most cases the MTT assay was used. This calorimetric assay is based on the ability of living cells, but not dead cells, to reduce 3-(4, 5-dimethyl thiazol-2-yl)-2, 5-diphenyltetrazolium bromide [Carmichael, J, De Graff, W. G., Gazdar, A. F., Minna, J. D. and Mitchell, J. B. (1987), “Evaluation oftetrazolium-based semiautomated calorimetric assay: Assessment of chemosensitivity testing,” Cancer Res., 47, 936-942]. For this assay, cells were plated in 96-well plates (10,000-30,000 cells in case of cultured cells, 100,000 cells in case of healthy lymphocytes, and 200,000 cells in case of chronic lymphocytic leukemia or non-Hodgkin lymphocytes) in the respective incubation media. After a 24-h resting period, the cells were treated with the test agents and then incubated (in CO2 incubator under humidified atmosphere) for 72 hours (final incubation volume, 150 μl). The MTT assay was performed both with the untreated and treated cell cultures at the conclusion of the incubation. Often, the MTT assay also was performed at the start of treatments to allow assessment of proliferation rates in the control and treated cell cultures. All data presented are the average of 4 incubations (in 4 separate wells) with the same cell population. […]

Solubility in water = assay type: physicochemical
Source text: In one embodiment, CCcompound104, CCcompound26 and EA may be administered orally. The two CC compounds are water-soluble, while EA is first dissolved in absolute ethanol and diluted in water or a suitable physiologically compatible liquid solvent. In one embodiment of the invention, the CC compounds and EA are in the form of a tablet, gel capsule, a liquid, or the like. In each case, the compounds are mixed with one or more carriers chosen by one having ordinary skill in the art to best suit the goal of treatment. In addition to the active compounds, the tablet or gel may contain any component that is presently used in the pharmaceutical field to ensure firmness, stability, solubility and appropriate taste. Any additional component of the tablet or gel will be chemically inert; i.e., it will not participate in a chemical reaction with the active compounds or the other additives. Each compound may be prepared for oral consumption separately, or the tablet, gel capsule or liquid may contain any of the two components or all three components. Tablets containing 25 mg or 50 mg of EA can be purchased from Merck.

SMILES: C=CC[N+](CC)(CC)CC/C=C1/c2ccccc2Sc2ccc(C)cc21.[Br-] [CCcompound26, N,N-Diethyl-N-allyl-3-(2-methyl-9H-thioxanthen-9-ylidene)-propan-1-aminiumbromide]
- cytotoxicity at 1.56 µM [1]: 55%
- cytotoxicity at 3.12 µM [1]: 68%
- cytotoxicity at 6.25 µM [1]: 80%
- cytotoxicity at 1.56 µM [2]: 0%
- cytotoxicity at 3.12 µM [2]: 0%
- cytotoxicity at 6.25 µM [2]: 10%
- cytotoxicity at 12.5 µM [2]: 15%
- cytotoxicity at 25 µM [2]: 13%
- cytotoxicity at 100 µM [2]: 56%
- Inhibition (%) of viability (MCF-7/ADR cells): 24.3%
- cytotoxicity at 1 µM (CLL cells; read-out: Inhibition (%) of viability, CLL patient 1): 3.5%
- cytotoxicity at 1 µM (CLL cells; read-out: Inhibition (%) of viability, CLL patient 2): 15.8%
- cytotoxicity at 1 µM (CLL cells; read-out: Inhibition (%) of viability, CLL patient 3): 66.6%
- cytotoxicity at 1 µM (CLL cells; read-out: Inhibition (%) of viability, CLL patient 4): 46.2%
- cytotoxicity at 1 µM (CLL cells; read-out: Inhibition (%) of viability, CLL patient 5): 10.8%
- cytotoxicity at 1 µM (CLL cells; read-out: Inhibition (%) of viability, CLL patient 6): 20.9%
- cytotoxicity at 1 µM (CLL cells; read-out: Inhibition (%) of viability, CLL patient 7): 1.8%
- cytotoxicity at 1 µM (CLL cells; read-out: Inhibition (%) of viability, CLL patient 8): 9%
- cytotoxicity at 1 µM (CLL cells; read-out: Inhibition (%) of viability, CLL patient 9): 9.2%
- cytotoxicity at 1 µM (CLL cells; read-out: Inhibition (%) of viability, CLL patient 10): 40.7%
- cytotoxicity at 1 µM (CLL cells; read-out: Inhibition (%) of viability, CLL patient 11): 48.1%
- cytotoxicity at 1 µM (CLL cells; read-out: Inhibition (%) of viability, CLL patient 12): 30.4%
- cytotoxicity at 1 µM (CLL cells; read-out: Inhibition (%) of viability, CLL patient 13): 42.8%
- cytotoxicity at 1 µM (CLL cells; read-out: Inhibition (%) of viability, CLL patient 14): 72.7%
- cytotoxicity at 1 µM (CLL cells; read-out: Inhibition (%) of viability, CLL patient 15): 1.6%
- cytotoxicity at 1 µM (CLL cells; read-out: Inhibition (%) of viability, CLL patient 16): 50%
- cytotoxicity at 1 µM (CLL cells; read-out: Inhibition (%) of viability, CLL patient 19): 22.5%
- cytotoxicity at 1 µM (CLL cells; read-out: Inhibition (%) of viability, CLL patient 20): 0%
- cytotoxicity at 12.5 µM [3]: < 15%
- cytotoxicity at 25 µM [3]: < 45%
- solubility in water (Solubility in water): water-soluble
